From the supplement of paper PMC10307832

What was measured:
Experiment in all cases: relative viability (nuclei count vs DMSO), 5 days (fraction); higher = more cells survive
[1] = compound: CC(C)(C)c1cc(NC(=O)Nc2ccc(-c3cn4c(n3)sc3cc(OCCN5CCOCC5)ccc34)cc2)no1 [Quizartinib] + CC(=O)c1c(C)c2cnc(Nc3ccc(N4CCNCC4)cn3)nc2n(C2CCCC2)c1=O [Palbociclib] (partner 0.5 µM)
How it was run: (§1)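 After 5 days of treatment, lung cancer cells in 1536-well plates were fixed and stained in a single step (final 0.05% Triton X-100, 1% formaldehyde, 1 ug/ml Hoechst) and their nuclei counted on 4× images. Treatment had been applied by pin tool the day after seeding as one drug alone or as a fixed anchor-drug dose with five library-drug doses (not always all listed) in √10 steps. Relative viability is the nuclei count of treated wells divided by that of vehicle wells, and values are medians of duplicate plates.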

[2] = compound: CC(C)(C)c1cc(NC(=O)Nc2ccc(-c3cn4c(n3)sc3cc(OCCN5CCOCC5)ccc34)cc2)no1 [Quizartinib] + C[C@@H](Oc1cc(-c2cnn(C3CCNCC3)c2)cnc1N)c1c(Cl)ccc(F)c1Cl [Crizotinib] (partner 1 µM)
How it was run: as §1

[3] = compound: COCC[n+]1c2c(n(Cc3cnccn3)c1C)C(=O)c1ccccc1C2=O [YM155] + CC(C)C[C@H](NC(=O)[C@H](Cc1ccccc1)NC(=O)c1cnccn1)B(O)O [Bortezomib] (partner 0.002 µM)
How it was run: as §1

[4] = compound: COCC[n+]1c2c(n(Cc3cnccn3)c1C)C(=O)c1ccccc1C2=O [YM155] + O=C(CCCCCCC(=O)Nc1ccccc1)NO [Vorinostat] (partner 1 µM)
How it was run: as §1

Cell Line	relative viability ([1]; first compound 0.001 µM)	relative viability ([1]; first compound 0.003162 µM)	relative viability ([1]; first compound 0.01 µM)	relative viability ([1]; first compound 0.03162 µM)	relative viability ([1]; first compound 0.1 µM)	relative viability ([2]; first compound 0.003162 µM)	relative viability ([2]; first compound 0.01 µM)	relative viability ([2]; first compound 0.03162 µM)	relative viability ([2]; first compound 0.1 µM)	relative viability ([3]; first compound 0.002 µM)	relative viability ([3]; first compound 0.006325 µM)	relative viability ([3]; first compound 0.02 µM)	relative viability ([3]; first compound 0.06325 µM)	relative viability ([4]; first compound 0.006325 µM)	relative viability ([4]; first compound 0.02 µM)	relative viability ([4]; first compound 0.06325 µM)	relative viability ([2]; first compound 0.001 µM)	relative viability ([4]; first compound 0.002 µM)
LCLC-97TM1	0.22	0.226	0.219	0.241	0.236	0.27	0.463	0.297	0.417	0.313	0.74	0.621	0.185	0.817	0.753	0.481		
BEN	0.388	0.427	0.544	0.472	0.503	0.769	0.766	0.722	0.73	0.665	0.849	0.852	0.906	0.511	0.619	0.679	0.819	0.516
NCI-H1650	0.386	0.329	0.345		0.321	0.957	1.23		0.881	0.216	0.23	0.221	0.19	0.427	0.468	0.3	0.891	0.545
EMC-BAC-2	0.456	0.483	0.547		0.544	0.713	0.873	0.758	0.738	1.03	1.08	1.04	1.06	0.452	0.606	0.256	0.753	0.428
NCI-H520		0.257	0.251	0.196	0.175	0.686	0.739	0.726	0.666	0.586	0.62	0.653	1	0.695	0.736	0.729	0.726	0.824
NCI-H1355	0.379	0.378	0.415	0.36	0.363	1.01	1.11	0.99	1.15	1.11	1.27	1.25	1.22	0.615	0.718	0.635	1.03	0.58
HCC-366	0.318	0.384	0.374	0.382	0.436	0.411	0.689	0.517	0.467	1.1	1.1	0.917	1.02	0.393	0.469	0.279	0.405	0.321
NCI-H1915	0.507	0.433	0.482	0.552	0.474	0.841	0.905	0.983	0.944	0.945	0.972	0.957	0.918	0.519	0.525	0.533	0.83	0.516
HARA	0.233	0.23	0.261	0.248	0.259	0.97	1.17	1.08	1.09	1.06	1.1	1.14	1.04	0.462	0.547	0.606	0.87	0.578
PC-3 [JPC-3]	0.531	0.545	0.598	0.588	0.504	0.961	1.01	0.955	0.955	0.823	0.94	0.774	0.904	0.889	0.855	0.74	0.978	0.746
LXF-289	0.52	0.603	0.649	0.594	0.574	0.787	0.821	0.8	0.726	0.944	0.93	0.989	1.02	0.789	0.73	0.756	0.743	0.739
NCI-H2126	0.359	0.347	0.347	0.339	0.346	0.992	1.12	0.962	1.07	1.07	1.13	1.09	1.16	0.834	0.865	0.851	0.816	0.782
NCI-H1755	0.418	0.451	0.471	0.446	0.41	0.839	0.95	0.853	0.791	0.941	0.894	1.03	0.923	0.671	0.622	0.845	0.819	0.752
HCC-827	0.515	0.471		0.65	0.471	0.877	0.961	0.934	0.879	1.01	1.04	1.02	0.912	0.961	0.835	0.835	0.934	0.875
NCI-H838	0.212	0.244	0.205	0.217	0.179	0.878	0.767	0.691	0.368	0.94	1.01	0.958	0.817	0.759	0.68	0.377	0.787	0.705
NCI-H3122	0.176	0.184	0.193	0.162	0.235	0.253	0.304	0.279	0.26	1	1.01	1.05	0.973	0.746	1.05	0.976	0.268	0.828
HCC-78		0.476	0.494	0.404	0.453	0.345	0.376	0.319	0.391	0.536	0.569	0.552	0.656	0.458	0.429	0.472	0.315	0.469
NCI-H322M	0.429	0.477	0.49	0.512	0.527	0.803	0.955	0.857	0.997	1.22	1.18	1.19	1.37	0.925	0.854	0.909	0.881	0.85
